Test results from patent publication US9708312B2, “Dihydropyrimidinoisoquinolinones and pharmaceutical compositions thereof for the treatment of inflammatory disorders (GPR84 antagonists)” (GALAPAGOS NV, priority 2012, dated 2017).

The molecules below were run against T1, GPR84 (Homo sapiens, UniProt Q9NQS5) (assay: GPR84 [35S]GTPγS binding assay, Tris buffer (alternative)). Conditions: 3,3′ di indolylmethane at EC80, membranes from stable cell line over expressing GPR84, read-out: Alternative GPR84 assay GTPγS IC50 (GPR84-2).
T1 construct: expressed in transfected cells
Assay type: biochemical
Method: 1.1. Cell Based Assay: GTp-γ S Binding Assay.
The following assay can be used for determination of GPR84 activation. The [^35S]GTPγS binding assay measures the level of G protein activation following agonist occupation of a GPCR, by determining the binding of the non-hydrolysable analog [^35S]GTPγS to Gα subunits.
Alternatively, the assay is performed in a 96 well plate where the following reagents are added. First 50 μL compound is added into the assay plate, followed by addition of 20 μL 3,3′ di indolylmethane at EC80 concentration (concentration which gives 80% of the activity of GPR84). In a last step, 30 μL of a mixture consisting of membranes-GTPγS-SpA beads is added [mixture consists of 20 μg/well membranes derived from stable cell line over expressing GPR84 (membranes are pre-incubated with 0.1 μM GDP for 15 min at 4° C.), 0.1 nM [^35S]GTPγS (Perkin Elmer, NEG030) and 0.5 mg/well PVT-WGA SpA beads (Perkin Elmer, RPNQ0001)]. All components are diluted in assay buffer containing 20 mM Tris pH 7.5; 5 mM MgCl2; 250 mM NaCl; 0.05% BSA; 75 ug/mL saponin Reactions are incubated for 90 min at room temperature followed by centrifugation at 2000 rpm during 15 min. Plates are read on a Topcount reader (Perkin Elmer) immediately after centrifugation (readout time, 1 min/well).

T1 sequence (Q9NQS5 whole entry): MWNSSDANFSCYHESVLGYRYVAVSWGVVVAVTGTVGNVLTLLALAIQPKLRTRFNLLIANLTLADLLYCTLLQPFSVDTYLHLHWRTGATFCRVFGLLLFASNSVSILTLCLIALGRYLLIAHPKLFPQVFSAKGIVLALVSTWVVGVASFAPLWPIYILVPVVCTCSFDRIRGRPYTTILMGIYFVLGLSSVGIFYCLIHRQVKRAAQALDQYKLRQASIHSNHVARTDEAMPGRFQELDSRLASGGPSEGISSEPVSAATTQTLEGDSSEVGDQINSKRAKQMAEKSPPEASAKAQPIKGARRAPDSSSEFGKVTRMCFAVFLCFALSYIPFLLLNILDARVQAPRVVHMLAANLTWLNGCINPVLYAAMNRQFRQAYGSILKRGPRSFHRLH

| SMILES | IC50 |
| --- | --- |
| Cc1cccc(COc2ccc3c(c2)CCn2c-3cc(OCC3CCCO3)nc2=O)c1 (centres unmarked) [compound 34, 9-(3-methyl-benzyloxy)-2-(tetrahydro-furan-2-ylmethoxy)-6,7-dihydro-pyrimido[6,1-a]isoquinolin-4-one] | 100 to 500 nM |
| O=c1nc(OCC2CCCO2)cc2n1CCc1cc(OCc3cccc4ccccc34)ccc1-2 (centres unmarked) [compound 38, 9-(naphthalen-1-ylmethoxy)-2-(tetrahydro-furan-2-ylmethoxy)-6,7-dihydro-pyrimido[6,1-a]isoquinolin-4-one] | 500 to 1000 nM |
| COc1ccc(-c2ccc3c(c2)CCn2c-3cc(OCC3CCCO3)nc2=O)cn1 (centres unmarked) [compound 110, 9-(6-methoxy-pyridin-3-yl)-2-(tetrahydro-furan-2-ylmethoxy)-6,7-dihydro-pyrimido[6,1-a]isoquinolin-4-one] | 100 to 500 nM |
| Cc1noc(C)c1-c1ccc2c(c1)CCn1c-2cc(OCC2CCCO2)nc1=O (centres unmarked) [compound 112, 9-(3,5-dimethyl-isoxazol-4-yl)-2-(tetrahydro-furan-2-ylmethoxy)-6,7-dihydro-pyrimido[6,1-a]isoquinolin-4-one] | 100 to 500 nM |
| O=c1nc(OCC2CCCO2)cc2n1CCc1cc(-c3ccc4ccccc4c3)ccc1-2 (centres unmarked) [compound 113, 9-naphthalen-2-yl-2-(tetrahydro-furan-2-ylmethoxy)-6,7-dihydro-pyrimido[6,1-a]isoquinolin-4-one] | 0.01 to 100 nM |
| O=c1nc(OCC2CCCO2)cc2n1CCc1cc(-c3cccc4ccccc34)ccc1-2 (centres unmarked) [compound 114, 9-naphthalen-1-yl-2-(tetrahydro-furan-2-ylmethoxy)-6,7-dihydro-pyrimido[6,1-a]isoquinolin-4-one] | 500 to 1000 nM |
| O=c1nc(OCC2CCCO2)cc2n1CCc1cc(-c3ccc(Cl)s3)ccc1-2 (centres unmarked) [compound 116, 9-(5-chloro-thiophen-2-yl)-2-(tetrahydro-furan-2-ylmethoxy)-6,7-dihydro-pyrimido[6,1-a]isoquinolin-4-one] | 500 to 1000 nM |
| O=c1nc(OCC2CCCO2)cc2n1CCc1cc(C#CC3CC3)ccc1-2 (centres unmarked) [compound 119, 9-cyclopropylethynyl-2-(tetrahydro-furan-2-ylmethoxy)-6,7-dihydro-pyrimido[6,1-a]isoquinolin-4-one] | 100 to 500 nM |
| CC(C)(C)C#Cc1ccc2c(c1)CCn1c-2cc(OCC2CCCO2)nc1=O (centres unmarked) [compound 120, 9-(3,3-dimethyl-but-1-ynyl)-2-(tetrahydro-furan-2-ylmethoxy)-6,7-dihydro-pyrimido[6,1-a]isoquinolin-4-one] | 500 to 1000 nM |
| O=c1nc(OCC2COc3ncccc3O2)cc2n1CCc1cc(-c3cccnc3)ccc1-2 (centres unmarked) [compound 124, 2-(2,3-Dihydro-[1,4]dioxino[2,3-b]pyridin-2-ylmethoxy)-9-pyridin-3-yl-6,7-dihydro-pyrimido[6,1-a]isoquinolin-4-one] | 0.01 to 100 nM |
| COc1ccccc1-c1ccc2c(c1)CCn1c-2cc(OCC2COc3ncccc3O2)nc1=O (centres unmarked) [compound 126, 2-(2,3-dihydro-[1,4]dioxino[2,3-b]pyridin-2-ylmethoxy)-9-(2-methoxy-phenyl)-6,7-dihydro-pyrimido[6,1-a]isoquinolin-4-one] | 100 to 500 nM |
| O=c1nc(OCC2COc3ncccc3O2)cc2n1CCc1cc(-c3ccc4[nH]ncc4c3)ccc1-2 (centres unmarked) [compound 127, 2-(2,3-Dihydro-[1,4]dioxino[2,3-b]pyridin-2-ylmethoxy)-9-(1H-indazol-5-yl)-6,7-dihydro-pyrimido[6,1-a]isoquinolin-4-one] | 0.01 to 100 nM |
| O=c1nc(OCC2COc3ncccc3O2)cc2n1CCc1cc(-c3cncnc3)ccc1-2 (centres unmarked) [compound 128, 2-(2,3-dihydro-[1,4]dioxino[2,3-b]pyridin-2-ylmethoxy)-9-pyrimidin-5-yl-6,7-dihydro-pyrimido[6,1-a]isoquinolin-4-one] | 0.01 to 100 nM |
| NC(=O)c1cccc(-c2ccc3c(c2)CCn2c-3cc(OCC3COc4ncccc4O3)nc2=O)c1 (centres unmarked) [compound 129, 3-[2-(2,3-Dihydro-[1,4]dioxino[2,3-b]pyridin-2-ylmethoxy)-4-oxo-6,7-dihydro-4H-pyrimido[6,1-a]isoquinolin-9-yl]-benzamide] | 0.01 to 100 nM |
| CN(C)c1ccccc1-c1ccc2c(c1)CCn1c-2cc(OCC2COc3ncccc3O2)nc1=O (centres unmarked) [compound 130, 2-(2,3-Dihydro-[1,4]dioxino[2,3-b]pyridin-2-ylmethoxy)-9-(2-dimethylamino-phenyl)-6,7-dihydro-pyrimido[6,1-a]isoquinolin-4-one] | 100 to 500 nM |
| O=c1nc(OCC2COc3ncccc3O2)cc2n1CCc1cc(C#CCCO)ccc1-2 (centres unmarked) [compound 133, 2-(2,3-dihydro-[1,4]dioxino[2,3-b]pyridin-2-ylmethoxy)-9-(4-hydroxy-but-1-ynyl)-6,7-dihydro-pyrimido[6,1-a]isoquinolin-4-one] | 0.01 to 100 nM |
| Cc1noc(COc2ccc3c(c2)CCn2c-3cc(OCC3COc4ncccc4O3)nc2=O)n1 (centres unmarked) [compound 135, 2-(2,3-dihydro-[1,4]dioxino[2,3-b]pyridin-2-ylmethoxy)-9-(3-methyl-[1,2,4]oxadiazol-5-ylmethoxy)-6,7-dihydro-pyrimido[6,1-a]isoquinolin-4-one] | 0.01 to 100 nM |
| O=c1nc(OCC2COc3ncccc3O2)cc2n1CCc1cc(C#CCO)ccc1-2 (centres unmarked) [compound 138, 2-(2,3-dihydro-[1,4]dioxino[2,3-b]pyridin-2-ylmethoxy)-9-(3-hydroxy-prop-1-ynyl)-6,7-dihydro-pyrimido[6,1-a]isoquinolin-4-one] | 0.01 to 100 nM |
| N#CCCC#Cc1ccc2c(c1)CCn1c-2cc(OCC2COc3ncccc3O2)nc1=O (centres unmarked) [compound 143, 5-[2-(2,3-dihydro-[1,4]dioxino[2,3-b]pyridin-2-ylmethoxy)-4-oxo-6,7-dihydro-pyrimido[6,1-a]isoquinolin-9-yl]-pent-4-ynenitrile] | 0.01 to 100 nM |
| CC(C)(C)C#Cc1ccc2c(c1)CCn1c-2cc(OCC2COc3ncccc3O2)nc1=O (centres unmarked) [compound 144, 2-(2,3-dihydro-[1,4]dioxino[2,3-b]pyridin-2-ylmethoxy)-9-(3,3-dimethyl-but-1-ynyl)-6,7-dihydro-pyrimido[6,1-a]isoquinolin-4-one] | 0.01 to 100 nM |
